# pIC50: −log10 of the molar value.
# System: 349418-098-R-PDC complex spheroid viability
# Experiment: Anticancer human tumor 349418-098-R-PDC patient-derived lung adenocarcinoma cell line growth inhibition [RAS]
# Conditions: for pIC50: curve of first compound; for viability, T/C: stronger effect = lower value
# Summary of the method: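 Agents were tested in combination matrices in half-log decrements from a top concentration at or near clinical Cmax (10 microM if undetermined). Targets were multi-cell spheroids of tumour lines plus HUVEC and MSC stromal cells.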
# [1] = second compound 0.000949 µM, first compound 0.0316 µM
# [2] = second compound 0.000949 µM, first compound 0.1 µM
# [3] = second compound 0.000949 µM, first compound 0.316 µM
# [4] = second compound 0.000949 µM, first compound 1 µM
# [5] = second compound 0.000949 µM, first compound 3.16 µM
# [6] = second compound 0.000949 µM, first compound 10 µM
# [7] = second compound 0.003 µM, first compound 0.0316 µM
# [8] = second compound 0.003 µM, first compound 0.1 µM
# [9] = second compound 0.003 µM, first compound 0.316 µM
# [10] = second compound 0.003 µM, first compound 1 µM
# [11] = second compound 0.003 µM, first compound 3.16 µM
# [12] = second compound 0.003 µM, first compound 10 µM
# [13] = second compound 0.00949 µM, first compound 0.0316 µM
# [14] = second compound 0.00949 µM, first compound 0.1 µM
# [15] = second compound 0.00949 µM, first compound 0.316 µM
# [16] = second compound 0.00949 µM, first compound 1 µM
# [17] = second compound 0.00949 µM, first compound 3.16 µM
# [18] = second compound 0.00949 µM, first compound 10 µM
# [19] = second compound 0.03 µM, first compound 0.0316 µM
# [20] = second compound 0.03 µM, first compound 0.1 µM
# [21] = second compound 0.03 µM, first compound 0.316 µM
# [22] = second compound 0.03 µM, first compound 1 µM
# [23] = second compound 0.03 µM, first compound 3.16 µM
# [24] = second compound 0.03 µM, first compound 10 µM
# [25] = second compound 0.0949 µM, first compound 0.0316 µM
# [26] = second compound 0.0949 µM, first compound 0.1 µM
# [27] = second compound 0.0949 µM, first compound 0.316 µM
# [28] = second compound 0.0949 µM, first compound 1 µM
# [29] = second compound 0.0949 µM, first compound 3.16 µM
# [30] = second compound 0.0949 µM, first compound 10 µM
# [31] = second compound 0.3 µM, first compound 0.0316 µM
# [32] = second compound 0.3 µM, first compound 0.1 µM
# [33] = second compound 0.3 µM, first compound 0.316 µM
# [34] = second compound 0.3 µM, first compound 1 µM
# [35] = second compound 0.3 µM, first compound 3.16 µM
# [36] = second compound 0.3 µM, first compound 10 µM
# 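Also: spheroids exposed to compound for seven days before viability readout.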
smiles,measurement,setting,value
CC1(O)CCCC1n1c(=O)c(C(F)F)cc2cnc(NC3CCN(S(C)(=O)=O)CC3)nc21 (stereo unspecified) + CCn1c(-c2cc(N3CCN(C)CC3)cnc2C(C)OC)c2c3cc(ccc31)-c1csc(n1)CC(NC(=O)C1CC1C)C(=O)N1CCCC(N1)C(=O)OCC(C)(C)C2,pIC50,second compound 0.000949 µM,7.20
same,pIC50,second compound 0.003 µM,7.14
same,pIC50,second compound 0.00949 µM,7.24
same,pIC50,second compound 0.03 µM,7.07
same,pIC50,second compound 0.0949 µM,7.08
same,pIC50,second compound 0.3 µM,7.11
same,"viability, T/C",[1],71.3%
same,"viability, T/C",[2],34.3%
same,"viability, T/C",[3],21.8%
same,"viability, T/C",[4],21.3%
same,"viability, T/C",[5],22.5%
same,"viability, T/C",[6],3.27%
same,"viability, T/C",[7],73.1%
same,"viability, T/C",[8],38.1%
same,"viability, T/C",[9],25.3%
same,"viability, T/C",[10],20.1%
same,"viability, T/C",[11],21.5%
same,"viability, T/C",[12],2.54%
same,"viability, T/C",[13],60.6%
same,"viability, T/C",[14],41.4%
same,"viability, T/C",[15],22%
same,"viability, T/C",[16],23%
same,"viability, T/C",[17],19.6%
same,"viability, T/C",[18],2.74%
same,"viability, T/C",[19],70.8%
same,"viability, T/C",[20],48.1%
same,"viability, T/C",[21],23.6%
same,"viability, T/C",[22],22.9%
same,"viability, T/C",[23],19.2%
same,"viability, T/C",[24],2.55%
same,"viability, T/C",[25],83.8%
same,"viability, T/C",[26],42%
same,"viability, T/C",[27],23.3%
same,"viability, T/C",[28],23.9%
same,"viability, T/C",[29],21.4%
same,"viability, T/C",[30],2.75%
same,"viability, T/C",[31],78.2%
same,"viability, T/C",[32],40.7%
same,"viability, T/C",[33],22.5%
same,"viability, T/C",[34],22.3%
same,"viability, T/C",[35],20.5%
same,"viability, T/C",[36],2.63%
CCC(CC)c1cc(NC2CCC(N)C2)n2nccc2n1 (stereo unspecified) + CCn1c(-c2cc(N3CCN(C)CC3)cnc2C(C)OC)c2c3cc(ccc31)-c1csc(n1)CC(NC(=O)C1CC1C)C(=O)N1CCCC(N1)C(=O)OCC(C)(C)C2,pIC50,second compound 0.000949 µM,6.08
same,pIC50,second compound 0.003 µM,5.98
same,pIC50,second compound 0.00949 µM,5.94
same,pIC50,second compound 0.03 µM,6.07
same,pIC50,second compound 0.0949 µM,6.01
same,pIC50,second compound 0.3 µM,6.01
same,"viability, T/C",[1],96.1%
same,"viability, T/C",[2],91.7%
same,"viability, T/C",[3],98.7%
same,"viability, T/C",[4],40.8%
same,"viability, T/C",[5],2.44%
same,"viability, T/C",[6],2.65%
same,"viability, T/C",[7],103%
same,"viability, T/C",[8],106%
same,"viability, T/C",[9],96.5%
same,"viability, T/C",[10],52.7%
same,"viability, T/C",[11],2.69%
same,"viability, T/C",[12],2.78%
same,"viability, T/C",[13],94.8%
same,"viability, T/C",[14],94.3%
same,"viability, T/C",[15],90%
same,"viability, T/C",[16],56.3%
same,"viability, T/C",[17],2.15%
same,"viability, T/C",[18],2.27%
same,"viability, T/C",[19],107%
same,"viability, T/C",[20],103%
same,"viability, T/C",[21],94.1%
same,"viability, T/C",[22],42.8%
same,"viability, T/C",[23],2.26%
same,"viability, T/C",[24],2.15%
same,"viability, T/C",[25],119%
same,"viability, T/C",[26],103%
same,"viability, T/C",[27],99.8%
same,"viability, T/C",[28],50.7%
same,"viability, T/C",[29],2.85%
same,"viability, T/C",[30],2.9%
same,"viability, T/C",[31],116%
same,"viability, T/C",[32],107%
same,"viability, T/C",[33],108%
same,"viability, T/C",[34],49.4%
same,"viability, T/C",[35],2.38%
same,"viability, T/C",[36],2.44%
CCN1CCN(Cc2ccc(Nc3ncc(F)c(-c4cc(F)c5nc(C)n(C(C)C)c5c4)n3)nc2)CC1 + CCn1c(-c2cc(N3CCN(C)CC3)cnc2C(C)OC)c2c3cc(ccc31)-c1csc(n1)CC(NC(=O)C1CC1C)C(=O)N1CCCC(N1)C(=O)OCC(C)(C)C2,pIC50,second compound 0.000949 µM,7.71
same,pIC50,second compound 0.003 µM,7.79
same,pIC50,second compound 0.00949 µM,7.77
same,pIC50,second compound 0.03 µM,7.66
same,pIC50,second compound 0.0949 µM,7.54
same,pIC50,second compound 0.3 µM,7.69
same,"viability, T/C","second compound 0.000949 µM, first compound 0.00316 µM",96.6%
same,"viability, T/C","second compound 0.000949 µM, first compound 0.01 µM",68.5%
same,"viability, T/C",[1],33.4%
same,"viability, T/C",[2],28.7%
same,"viability, T/C",[3],20.4%
same,"viability, T/C",[4],15.3%
same,"viability, T/C","second compound 0.003 µM, first compound 0.00316 µM",93.4%
same,"viability, T/C","second compound 0.003 µM, first compound 0.01 µM",59.7%
same,"viability, T/C",[7],38.5%
same,"viability, T/C",[8],19.3%
same,"viability, T/C",[9],20.3%
same,"viability, T/C",[10],14%
same,"viability, T/C","second compound 0.00949 µM, first compound 0.00316 µM",103%
same,"viability, T/C","second compound 0.00949 µM, first compound 0.01 µM",63.4%
same,"viability, T/C",[13],35.3%
same,"viability, T/C",[14],18.5%
same,"viability, T/C",[15],20%
same,"viability, T/C",[16],12.7%
same,"viability, T/C","second compound 0.03 µM, first compound 0.00316 µM",104%
same,"viability, T/C","second compound 0.03 µM, first compound 0.01 µM",85.5%
same,"viability, T/C",[19],33%
same,"viability, T/C",[20],19.5%
same,"viability, T/C",[21],23.5%
same,"viability, T/C",[22],15%
same,"viability, T/C","second compound 0.0949 µM, first compound 0.00316 µM",92.7%
same,"viability, T/C","second compound 0.0949 µM, first compound 0.01 µM",54.4%
same,"viability, T/C",[25],58.4%
same,"viability, T/C",[26],33.1%
same,"viability, T/C",[27],23.1%
same,"viability, T/C",[28],12.8%
same,"viability, T/C","second compound 0.3 µM, first compound 0.00316 µM",88.1%
same,"viability, T/C","second compound 0.3 µM, first compound 0.01 µM",60.1%
same,"viability, T/C",[31],42.8%
same,"viability, T/C",[32],32.3%
same,"viability, T/C",[33],22%
same,"viability, T/C",[34],14.6%

# Source: PubChem BioAssay AID2060904 (Molecular Pharmacology Branch, DTP, NCI, 2025)
